Experimental data taken from patent publication US20220132856A1, “PHOTOSENSITIZER AND CHELATING AGENT COMBINATIONS FOR USE AS INSECTICIDES” (SUNCOR ENERGY INC., priority 2019, published 2022).

Assays:
[1] = test system: Common Poinsettia plants (Euphorbia pulcherrima) cv Prestige Red; test: Phytotoxicity on poinsettia plants (Example 4)
[2] = test system: potato aphids (Macrosiphum euphorbiae); conditions: for Mean Insects Mortality, % 24 HAT / Mean Insects Mortality, % 48 HAT: LED light exposure 14 h after treatment
Experimental: Potato aphids (Macrosiphum euphorbiae) were obtained from a colony maintained on Bell pepper (Capsicum annuum L.) plants grown in 1-gal plastic pots containing soil mix for greenhouse use (Sunshine LC1, Sun Gro Horticulture Canada Ltd.). Plants were watered as needed and fertilized twice a week with 20-20-20 water soluble fertilizers. Host plants were not exposed to pesticide treatments.
Pepper leaves infested with aphid nymphs were collected and each leaf was placed in 50 ml vials filled with water. Vials were covered with the lead with a small opening to prevent insects from drowning. Vials with host plant leaf infested with insects were placed in 500 ml transparent plastic containers and covered with transparent leads.
All treatments were applied as a fine spray using a hand-held plastic spray bottle. Each treatment was replicated 4 times. Water treatment was used as a Control.
After 14 h of exposure to LED light or dark insects were kept at a regular 14 h/10 h (light/night) photoperiod. Containers with insects were arranged in a randomized fashion. The experimental rack was placed in the Plant Growth Room at 24-25° C.
The number of live aphids on each leaf (replicate/container) was counted before application of the treatments, as well as 24 h and 48 h after the treatments. The insects were examined using 10× magnifying glass. Aphids were considered dead if no movement was detected after mechanical stimulation with the paintbrush.
Percentage of mortality was calculated by using the numbers of live and dead aphids. Percentage of mortality was rated as zero, when number of insects in the sample increased during the experiment (aphids females gave birth to nymphs).

[3] = test system: German cockroach (Blatella germanica); test: German cockroach nymph suppression, treatment fed in 1% sucrose solution, light or dark; type: in vivo; conditions: cockroach nymphs
Experimental: A small German cockroach colony (Blatella germanica) was purchased from Benzon Research (USA). Cockroach mix sex nymphs were used as model insect.
The experiments were conducted in a lab. Insectary at 25° C. in light and dark conditions. Light condition: 12 h light/12 h dark photoperiod. During the light period insects were exposed to Spectrum Physio Spec Indoor LED light 250 μmol m^−2 s^−1 Dark condition: insects were kept in complete dark. Insects were fed prior to treatments with 1% sucrose solution and were anesthetizing in the fridge for a few minutes before handling.
Ten homogenous cockroach nymphs (3-4 instar) were carefully transferred into each half pint clear glass jar abraded internally to provide surface for climbing and lined with 9 cm in diameter filter paper. The treatments were administered to cockroaches in a 1% sucrose solution positioned in 10 ml glass vials abraded externally for easy climbing insects and placed in jars. Fresh treatment solutions were replaced each 3 days. Glass jars were covered with mesh. […] Completely randomized design with 4 replications per treatment was used.
Treated insects were kept under specific conditions for 14 days and mortality count was performed at 7 and 14 days after exposure to treatments.

[4] = test system: Common Poinsettia plants (Euphorbia pulcherrima); conditions: 0=healthy plants, 10=dead plants
Experimental: Poinsettia plants were evaluated for phytotoxicity after treatments. Phytotoxicity on the plants was rated 0 to 10, where 0=healthy plants, 10=dead plants at 6 DAA and 13DAA. Ratings were based on visual observations for symptoms such as chlorosis, necrosis, deformation, stunting and compared to plants in the untreated control.

[5] = test system: Silverleaf whitefly (Bemesia argentifolii); test: Silverleaf whitefly live nymph count on sprayed poinsettia (Example 3); type: in vivo; conditions: for Mean number of whitefly live nymphs/sample −1 DAA: 1 day before treatments application (baseline); for Mean number of whitefly live nymphs/sample 6 DAA: 6 days after first application, sunlight 8 h after spray; for Mean number of whitefly live nymphs/sample 13 DAA: 13 days after first application (6 days after application 2); for Mean number of whitefly live nymphs/sample 20 DAA: 20 days after first application (13 days after application 2); for Mean number of whitefly live nymphs/sample 28 DAA: 28 days after application 1 (21 days after application 2)
Experimental: The experiments were conducted in a greenhouse. Whiteflies were maintained on Common Poinsettia plants (Euphorbia pulcherrima) in the Greenhouse. Host plants and experimental plants were not initially exposed to pesticide treatments.
Experimental poinsettia plants were grown from the plug stage in 6.5″ plastic pots filled with Sunshine #4 soil mix. The plants were irrigated every day and soluble fertilizer 20-20-20 @ 200 ppm was applied twice weekly.
The poinsettia plants were placed for 7 days to whitefly infected the greenhouse to obtain uniform colonies of insect nymphs on introduced plants. After 7 days, the plants were removed from the infested greenhouse and whitefly nymph population was counted using the discs method.
(§1) Two 5.47 cm^2 discs were taken from each plant replicate, insects were observed under a stereoscope and counted. The discs were taken from the mid to upper strata areas of the plant as this area is preferred by insects for eggs laying and nymphs development. Upon initiation of the experiment the whitefly population was considered uniform.
Treatments were applied with CO2 backpack sprayer with a single solid cone nozzle (TG1) at 60 psi. Plants were thoroughly sprayed with tested treatments and immediately exposed to direct sunlight for 8 h before returning to the greenhouse setting. For each treatment, five single plant replicates were used. After 8 h of outside sun exposure all plants were carefully moved into the greenhouse and placed on a wire mesh bench in RCB design. A second application of treatments was made 7 days after the first application using the same methodology.
The number of whitefly nymphs per disc was counted at 1 day before treatments application (DAA), 6 days after first application (DAA), 13 days after first application (or 6 days after application 2), 20 days after first application 1 (or 13 days after application 2) and 28 days after application 1 (or 21 days after application 2).

[6] = test system: Silverleaf whitefly (Bemesia argentifolii); test: Silverleaf whitefly suppression on sprayed poinsettia (Example 4); type: in vivo; conditions: whitefly nymphs, two sprays 7 days apart, sunlight 2 days; for Insects Suppression, % 6 DAT2: 6 days after second application; for Insects Suppression, % 13 DAT2: 13 days after second application
Experimental: The experiments were conducted in a greenhouse. Whiteflies were maintained on Common Poinsettia plants (Euphorbia pulcherrima) cv Prestige Red in the Greenhouse. Host plants and experimental plants were not initially exposed to pesticide treatments.
Experimental poinsettia plants were grown in 6.5″ plastic pots filled with Sunshine #4 soil mix. The plants were irrigated every day and soluble fertilizer 20-20-20 @ 200 ppm was applied twice weekly.
The poinsettia plants were placed into a whitefly infected greenhouse for 30 days to obtain uniform colonies of insect nymphs on the plants. After 30 days, the infested plants were moved from the infested greenhouse and placed outside of the greenhouse for a two-day adaptation period prior to the treatment. Whitefly nymph population was counted one day prior to the treatment using the discs method.
as §1, with “from each replicate, insects” for “from each plant replicate, insects”, “were taken from the randomly collected leaves from the” for “were taken from the”
Treatments were applied two times with a 7-day interval using CO2 backpack sprayer with a single hollow cone nozzle (TVXK-3) at 40 psi. Plants were thoroughly sprayed with tested treatments and immediately exposed to direct sunlight for 2 days before returning to the greenhouse setting. For each treatment, six single plant replicates were used. After 2 days of outside sun exposure, all plants were carefully moved into the separate greenhouse and placed on a wire mesh bench in a Completely Randomized design. A second application of treatments was made 7 days after the first application using the same methodology.
The number of whitefly nymphs per disc was counted at 6 and 13 days after second foliar application (6 DAT2, 13DAT2). The Plants were evaluated for phytotoxicity at 6 days after each foliar spray.

[7] = test system: Citrus Mealybug (Planococcus citri Risso); test: Mealybug exposure to direct spray in petri dishes, instar mortality; type: in vivo; conditions: mealybug instars sprayed in petri dishes, simulated daylight (LED) 14 h
Experimental: (§2) Colonies of Citrus Mealybug (Planococcus citri Risso) were maintained on Coleus plants (Solenostemon Scutellarioides L. Codd) grown in a Greenhouse under 24±4° C. and 16 h light/8 h dark photoperiod. […] Host plants were not initially exposed to pesticide treatments.
(§3) Small crowns of coleus shoots (4-6 cm in height, 6-7 leaves) were excised from the mature healthy plant and inserted into water-filled 50 ml plastic vials.
(§4) Homogenous mealybug instars-crawlers were carefully collected from the infested coleus plants using tip-moist soft fine paintbrush into a petri dish lined with filter paper. A total of 20 mealybug instars were released on upper leaves of each coleus shoot. […] Rack was located in the Plant Growth Room at 24-25° C.
(§5) Each treatment was replicated 4 times. Water treatment was used as a Control.
(§6) Insects were examined using 10×magnifying glass. […] The number of live and dead insects were recorded. Insect mortality was assessed for up to 96 hours after treatment (HAT-hours after treatment).
(§7) Percentage of citrus mealybug mortality for each treatment was calculated and data was subjected to One-way ANOVA combine with All Pairwise Multiple Comparison Procedures using the Fisher protected LSD mean separation test, […].
Mealybug instars were transferred into plastic containers lined with filter paper, sprayed and immediately exposed to light for […]. […]

[8] = test system: Citrus Mealybug (Planococcus citri Risso); test: Mealybug exposure to direct spray on plants (coleus shoots), instar mortality; type: in vivo
Experimental: as §2, §3, §4, §5, §6, §7
Mealybug were introduced to coleus shoots. Two hours later, the shoots were sprayed with photosensitizer and placed under the light for 14 hours.

## O=C([O-])CN(CCN(CC(=O)[O-])CC(=O)O)CC(=O)O.[Na+].[Na+] [0.1% Na2EDTA, Na2EDTA]
[1]
  Phytotoxicity % 13 DAT2: 0%
[2]; 24 HAT
  Mean Insects Mortality, % 24 HAT: 6%
[2]; 48 HAT
  Mean Insects Mortality, % 48 HAT: 20%
[3]; LED 250 μmol m^−2 s^−1, 12 h light/12 h dark
  Insects Suppression %, 14 DAT, Light (12/12 h light-dark): 33%
[3]; complete dark
  Insects Suppression %, 14 DAT, Dark: 0%
[4]
  Phytotoxicity (0-10) 6 DAA: 0
  Phytotoxicity (0-10) 13 DAA: 0
  Phytotoxicity (0-10) 20 DAA: 0
  Phytotoxicity (0-10) 28 DAA: 0
[5]
  Mean number of whitefly live nymphs/sample −1 DAA: 93 nymphs/sample
  Mean number of whitefly live nymphs/sample 6 DAA: 53 nymphs/sample
  Mean number of whitefly live nymphs/sample 13 DAA: 69.7 nymphs/sample
  Mean number of whitefly live nymphs/sample 20 DAA: 89.9 nymphs/sample
  Mean number of whitefly live nymphs/sample 28 DAA: 44.3 nymphs/sample
[6]
  Insects Suppression, % 6 DAT2: 36%
  Insects Suppression, % 13 DAT2: 31%

## C=CC1=C(C)c2cc3[nH]c(cc4nc(cc5[nH]c(cc1n2)c(C)c5CCC(=O)[O-])C(CCC(=O)[O-])=C4C)c(C)c3C=C.[Na+].[Na+] [0.1% PPIX, Protoporphyrin sodium salts]
[1]
  Phytotoxicity % 13 DAT2: 0%
[6]
  Insects Suppression, % 6 DAT2: 41%
  Insects Suppression, % 13 DAT2: 28%

## O=S(=O)([O-])c1ccc(-c2c3nc(c(-c4ccc(S(=O)(=O)[O-])cc4)c4ccc([nH]4)c(-c4ccc(S(=O)(=O)O)cc4)c4nc(c(-c5ccc(S(=O)(=O)[O-])cc5)c5ccc2[nH]5)C=C4)C=C3)cc1.[Na+].[Na+].[Na+] [0.1% TPPS-Na3, meso-tetra-(4-sulfonatophenyl) porphyrin trisodium salts]
[1]
  Phytotoxicity % 13 DAT2: 0%
[6]
  Insects Suppression, % 6 DAT2: 37%
  Insects Suppression, % 13 DAT2: 52%

## Mg-Chlorophyllin [0.2 wt % MgChln]
[7]; 24 hours after treatment
  Insect Mortality, % 24 HAT: 32.8%
[7]; 96 hours after treatment
  Insect Mortality, % 96 HAT: 46.3%
[2]; 24 HAT
  Mean Insects Mortality, % 24 HAT: 24%
[2]; 48 HAT
  Mean Insects Mortality, % 48 HAT: 24%
[2]; no light exposure (dark), dark exposure 24 h, 24 HAT
  Mean Insect Mortality, % 24 HAT: 5%
[2]; no light exposure (dark), dark exposure 24 h, 48 HAT
  Mean Insect Mortality, % 48 HAT: 17%
[4]
  Phytotoxicity (0-10) 6 DAA: 0
  Phytotoxicity (0-10) 13 DAA: 0
  Phytotoxicity (0-10) 20 DAA: 0
  Phytotoxicity (0-10) 28 DAA: 0
[5]
  Mean number of whitefly live nymphs/sample −1 DAA: 111.4 nymphs/sample
  Mean number of whitefly live nymphs/sample 6 DAA: 68 nymphs/sample
  Mean number of whitefly live nymphs/sample 13 DAA: 56.6 nymphs/sample
  Mean number of whitefly live nymphs/sample 20 DAA: 74.8 nymphs/sample
  Mean number of whitefly live nymphs/sample 28 DAA: 30.1 nymphs/sample
[8]; infested plants sprayed, at 24 and 96 HAT
  Insect mortality, in words: significant insect mortality
[8]; mealybugs on coleus shoots sprayed, light 14 h, 24 hours after treatment
  Insect Mortality, % 24 HAT: 50%
[8]; mealybugs on coleus shoots sprayed, light 14 h, 96 hours after treatment
  Insect Mortality, % 96 HAT: 68.8%

## chlorin e6 [0.1% Ce6]
[1]
  Phytotoxicity % 13 DAT2: 0%
[6]
  Insects Suppression, % 6 DAT2: 27%
  Insects Suppression, % 13 DAT2: 28%
